Data reported in patent US5631246A, “Use of PAF” (The Canadian Red Cross Society, priority 1993, dated 1997).

Tests used:
[1] = Stability of PAF in stored monocyte conditioned media; type: physicochemical; conditions: -80° C., various periods of time; within experimental error
Source text: In addition, PAF was extracted from the monocyte supernatants and assayed using the following highly specific and sensitive radioimmunoassay. As the most predominant bioactive forms of PAF secreted by monocytes are the C16 and C18 alkyl moieties (Sugiura and Waku, (1987) Platelet-Activating Factor and Related Lipid Mediators, F. Snyder Ed. Plenum Press, N.Y. 55-85; Prescott et al. (1990) Proc. Natl. Acad. Sci. U.S.A. 81:3534-3538), PAF was quantitated using the highly specific and sensitive ^125 I-RIA kit manufactured by NEN Research Products (Du Pont Canada, Mississauga, Ontario, Canada) following extraction of the monocyte supernatants with 5 mL each of methanol and chloroform and 3.5 mL of water per mL of sample. The recovered chloroform layers, dried under nitrogen, were reconstituted in the PAF assay kit buffer prior to analysis. […] Recoveries of PAF (90±1%, n=>130) were assessed by adding trace amounts of ^3 H-PAF to the sample prior to extraction and determining the % recoveries using a liquid scintillation counter (Model-7000, Beckman Instruments Canada). Iodinated samples were counted on a Beckman Gamma 5500 counter (Beckman Instruments, Fullerton, Calif.). […]

endothelial cells (ECs) = assay: vWf release from ECs exposed directly to PAF or thrombin; conditions: for Increase in vWf release (%), BTP-dioxolane absent: 4 hours
Experimental: Synthetic PAF (1-O-alkyl-2-acetyl-sn-glyceryl-3-phosphorylcholine; Sigma #P-9525) prepared from bovine heart lecithin (Demopoulos et al. (1979) J. Biol. Chem. 254: 9355-358) was 99% pure by TLC analysis, HPLC analysis indicated this product consisted of 70% C16 and 13% C18 forms of PAF (Mita et al., (1989) Anal. Biochem. 180:131-135). After removal of chloroform, PAF was resuspended in DMEM/F12 culture medium containing 1% Nutridoma-HU (final protein concentration of 40 μM stock solution). After sonication for 3×1 minute periods, the PAF solution was diluted and used immediately.
Media with or without thrombin (@5 units/mL) served as positive and negative controls respectively. ECs were incubated for 1, 10, 20 or 30 minutes and 1, 2, 4, 6 and 24 hours in the PAF and thrombin time course studies. The EC conditioned media were recovered, centrifuged to remove any cell debris, and then frozen at -80° C. for a maximum period of 4 weeks prior to analyses. […] Where appropriate ECs were preincubated with BTP-dioxolane which was not cytotoxic to the cells as determined by the dye exclusion test.
Endothelial cells (ECs) were harvested from human umbilical cord vein as described by Jaffe et al. ((1973) Culture of Human Endothelial Cells Derived from Umbilical Veins: Identification by Morphologic and Immunologic Criteria, J. Clin. Invest. 52:2745-2756) and modified by Hashemi et al. (1990, supra). Endothelial cells were subcultured in 0.2% (w/v) gelatin-coated, 12-well Linbro™ polystyrene, tissue culture plates (Flow Laboratories, Mississauga, Ontario), then plated at a density of 1-2×10^4 /well and grown to confluence.
The standard consisted of a pool of plasma from 20 normal individuals previously determined to contain 1 unit of vWf per mL by the procedure of Zimmerman et al. (1977, J. Clin. Invest. 59:984-989). […] For some experiments, the maximum vWf that could be released was determined. Following incubation, the EC conditioned media were recovered and fresh media containing 0.05% (v/v) Tween 20 and 10 μM each of the protease inhibitors D-phenylalanyl-phenylalanyl-arginyl-chloromethyl ketone, D-phenylalanyl-propyl-arginyl-chloromethyl ketone and 1,5-Dansyl-glutamyl-glycyl-arginyl-chloromethyl ketone were added to the EC monolayers of each corresponding well. The cells were freeze-thawed three times and, to assure complete breakdown of the cell membranes as well as the Weibel-Palade bodies, disrupted in a glass homogenizer using a motor-driven teflon pestle. After centrifugation, total vWf concentration was determined in the supernatants.
In order to examine the responsiveness of ECs to direct PAF exposure, we incubated the monolayers of ECs with 0-300 pico molar (pM) PAF for a period of 4 hours at 37° C. and determined the amount of vWf released into the EC media. […] To determine the time course of PAF effects on vWf release, 300 pM PAF was incubated with monolayers of ECs for 1, 10, 20 and 30 minutes as well as for 1, 2, 4, 6 and 24 hours. […] As a control, the vWf release from thrombin stimulated ECs was also determined (FIG. 5).

ECs = conditions: stimulation with PAF; D'Humieres et al. (1986); cited from earlier work

For “1-O-alkyl-2-acetyl-sn-glyceryl-3-phosphorylcholine [PAF]”, the “PAF values in monocyte conditioned media after storage” value [1] was “gave the same values”, the “vWf release from ECs (maximal)” value (endothelial cells (ECs); 300 pM PAF, 30 minutes, P<0.05, n=5) was 151% and the “vWf release as share of the maximal vWf recoverable” value (endothelial cells (ECs); 300 pM PAF, 30 minutes, […]) was ~ 4%. For the same substance, the “time course of vWf release from ECs” value (endothelial cells (ECs); 300 pM PAF, FIG. 5) was “released vWf at all time points up to 24 hours”, the “PAF concentration range of greatest vWf release response” value (endothelial cells (ECs); FIG. 4, 4 hours at 37° C., n=5) was 100 to 300 pM and the “Increase in vWf release (%), BTP-dioxolane absent” value (endothelial cells (ECs); PAF 100 pM, n=5) was 190.8 ± 46.6%. The “Increase in vWf release (%), BTP-dioxolane absent” value (endothelial cells (ECs); PAF 300 pM, n=5) was 204.2 ± 48.7% and the “PGI2 release from ECs” value (ECs) was “release PGI2 in response to stimulation”.
